Source: publication PMC9822022, “Biginelli Reaction Synthesis of Novel Multitarget-Directed Ligands with Ca^2+ Channel Blocking Ability, Cholinesterase Inhibition, Antioxidant Capacity, and Nrf2 Activation” (Molecules, 2022)
“And” between values parts separate entries of the source, which are not always exact repeats. Equal entries are not always repeated.

Key:
calcium channel = experiment: Ca+2 channel blockade, FLIPR Calcium 6 in SH-SY5Y cells; type: cell-based; settings: KCl/CaCl2 triggered, ± SD
Procedure: The Ca^+2 channel blockade capacity of compounds BIGI 4a-d and BIGI 5a-d, and nimodipine as standard, at 10 μM concentration was carried out following the usual methodology [28].
The evaluation of the calcium channel blockade of compounds BIGI 4a-d and BIGI 5a-d was carried out using FLIPR Calcium 6 indicator according to previously described protocols [35, 36]. In brief, FLIPR-loaded SH-SY5Y cells were exposed to nimodipine (10 µM, reference inhibitor), DMSO (0.1%, vehicle), or our compounds of interest (10 µM) for 10 min. […] Data were gathered in three independent experiments with eight technical replicates per experiment. Outlier detection by Grubbs’ test was performed and outlying values were excluded from further analysis.

AREc32 cells = experiment: Cytotoxicity against reporter cells (MTT); type: cell-based
Procedure: […]. Preliminarily, the cytotoxicity of compounds against AREc32 cells were evaluated, showing no toxicity until 50 μM for compounds BIGI 4b, BIGI 4d, and BIGI 5b and until 100 μM for compound BIGI 5d.
Treatment of stable ARE-luciferase reporter cells with the tested compounds and evaluation of the cellular viability: The NRF2/ARE-luciferase reporter HEK293 stable cell line was seeded and treated as described for the luciferase activity determination, except that transparent culture plates were used instead of white plates. After 24 h of incubation with the tested compounds, the percent of cell viability was measured using MTT assay.

[1] = target: T1, hAChE (AChE from human erythrocytes) (Homo sapiens, UniProt P22303); experiment: biochemical; type: biochemical; settings: for IC50: ± SD
T1 construct: AChE from human erythrocytes; purchased Sigma Aldrich; host or cells: human erythrocytes (natural source)
T1 sequence (P22303 other isoform, or with tags, fused parts or gaps): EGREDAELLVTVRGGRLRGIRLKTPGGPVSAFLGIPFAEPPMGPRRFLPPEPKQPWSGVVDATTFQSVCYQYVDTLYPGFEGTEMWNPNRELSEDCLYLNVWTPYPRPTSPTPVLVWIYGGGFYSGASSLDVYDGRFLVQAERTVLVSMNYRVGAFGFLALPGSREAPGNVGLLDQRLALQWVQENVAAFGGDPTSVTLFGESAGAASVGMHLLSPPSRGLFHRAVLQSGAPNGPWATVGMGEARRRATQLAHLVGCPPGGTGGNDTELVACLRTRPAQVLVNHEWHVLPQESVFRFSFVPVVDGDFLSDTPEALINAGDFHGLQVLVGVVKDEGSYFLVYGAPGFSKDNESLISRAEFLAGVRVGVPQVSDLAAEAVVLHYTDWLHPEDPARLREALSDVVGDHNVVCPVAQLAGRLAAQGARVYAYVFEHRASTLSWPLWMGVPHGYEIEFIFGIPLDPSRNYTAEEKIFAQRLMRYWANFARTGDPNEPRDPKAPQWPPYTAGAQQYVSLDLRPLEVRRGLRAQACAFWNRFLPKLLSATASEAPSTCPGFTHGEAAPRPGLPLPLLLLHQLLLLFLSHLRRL
Procedure: The inhibitory capacity of the compounds on AChE biological activity was evaluated using the spectrometric method of Ellman [27]. Acetyl- or butyrylthiocholine iodide and 5,5-dithiobis- (2-nitrobenzoic) acid (DTNB) were purchased from Sigma Aldrich. […] AChE from human erythrocytes (buffered aqueous solution, ≥500 units/mg protein (BCA), Sigma Aldrich) was diluted in 20 mM HEPES buffer, pH 8, 0.1% Triton X-100, to obtain an enzyme solution with 0.25 unit/mL enzyme activity. In the procedure, 100 µL of 0.3 mM DTNB dissolved in phosphate buffer pH 7.4 was added to the 96-well plate followed by 50 µL of test compound solution and 50 µL of enzyme (0.05 U final). After 5 min of preincubation at 25 °C, the reaction was then initiated by the injection of 50 µL of 10 mM acetyl- or butyrylthiocholine iodide solution. […] Assays were performed in singlicate during three independent tests, with a blank containing all components except acetyl- or butyrylthiocholine in order to account for non-enzymatic reaction. The reaction slopes were compared, and the percent inhibition due to the presence of test compounds was calculated by the following: 100 − (vi/v0 × 100) where vi is the rate calculated in the presence of inhibitor and v0 is the enzyme activity.

[2] = target: eqBuChE (BuChE from equine serum) (Equus caballus, UniProt P81908); experiment: biochemical; settings: ± SD
eqBuChE (BuChE from equine serum), sequence (P81908 whole entry): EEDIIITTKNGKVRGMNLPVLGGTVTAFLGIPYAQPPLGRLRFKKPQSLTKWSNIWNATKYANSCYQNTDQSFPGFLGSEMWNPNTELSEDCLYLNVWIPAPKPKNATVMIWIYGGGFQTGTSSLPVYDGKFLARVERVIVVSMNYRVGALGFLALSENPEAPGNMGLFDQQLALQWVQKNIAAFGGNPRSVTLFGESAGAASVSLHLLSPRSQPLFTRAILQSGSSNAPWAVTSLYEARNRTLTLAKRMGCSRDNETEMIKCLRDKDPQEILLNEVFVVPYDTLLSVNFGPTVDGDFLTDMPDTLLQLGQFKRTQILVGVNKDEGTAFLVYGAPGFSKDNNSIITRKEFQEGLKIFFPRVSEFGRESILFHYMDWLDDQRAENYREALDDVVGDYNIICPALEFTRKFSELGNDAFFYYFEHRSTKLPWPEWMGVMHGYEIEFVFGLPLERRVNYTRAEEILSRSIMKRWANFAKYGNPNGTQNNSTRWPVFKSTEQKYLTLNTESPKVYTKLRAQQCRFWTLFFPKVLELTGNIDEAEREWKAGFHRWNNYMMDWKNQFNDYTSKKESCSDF

[3] = ORAC-FL antioxidant assay; settings: for ORAC: Trolox equivalents, mean (n = 3) ± SEM; for times less active than melatonin (ORAC): on average
Procedure: The antioxidant activity of compounds BIGI 4a-d and BIGI 5a-d was determined by the ORAC-FL method. [29] Their radical scavenging properties are expressed as Trolox equivalents (TE) units.
The antioxidant activity of hybrids BIGI 4a-d and BIGI 5a-d was measured by ORAC-FL assay using fluorescein as a fluorescent probe. Briefly, fluorescein and antioxidant were incubated in a black 96-well microplate (Nunc) for 15 min at 37 °C. 2,2′-Azobis(amidinopropane) dihydrochloride was then added quickly using the built-in injector of a Varioskan Flash plate reader (Thermo Scientific, Waltham, MA, USA). […] All the reactions were made in triplicate and at least three different assays were performed for each sample.

Nrf2-ARE [4] = experiment: Nrf2/ARE-luciferase reporter cell assay; type: cell-based; settings: for Induction of the Nrf2 transcriptional pathway: 24 h, 5, 10 and 50 μM (up to 100 μM for BIGI 5d); for CD (concentration required to double the specific luciferase reporter activity): 24 h treatment, means ± SEM
Procedure: The Nrf2-ARE-activating effect of BIGI 4b, BIGI 4d, BIGI 5b, and BIGI 5d, the most balanced compounds against cholinesterase inhibition, calcium channel blockade, and antioxidant power, was determined in vitro using a cell-based luciferase assay in the AREc32 cell line, which represents a good model for the redox-dependent activation of Nrf2 [31]. TBHQ was used as the positive control.
AREc32 cells were treated over 24 h with increasing concentrations of each compound (5, 10, 50, 100 μM) and then luciferase activity was measured. Preliminarily, the cytotoxicity of compounds against AREc32 cells were evaluated, showing no toxicity until 50 μM for compounds BIGI 4b, BIGI 4d, and BIGI 5b and until 100 μM for compound BIGI 5d.
CD values (i.e., the concentration required to double the specific activity of the luciferase reporter) were calculated to compare the relative potencies.
Treatment of stable ARE-luciferase reporter cells with the tested compounds and evaluation of the luciferase activity: The NRF2/ARE-luciferase reporter HEK293 stable cell line (Signosis, Santa Clara, CA, USA) was maintained in Dulbecco’s MEM high-glucose (DMEM) medium supplemented with 10% FBS and penicillin–streptomycin at 37 °C in 95% air/5% CO2. For treatment, the cells were seeded at a density of 2 × 10^4 per well in 96-well white microtiter plates. After 48 h, the culture medium was replaced with fresh DMEM supplemented with 0.1% FBS containing different concentrations of the tested compounds or DMSO (0.1%) in duplicate. Luciferase activity was measured after 24 h of treatment using the Bright-Glo luciferase assay system (Promega) according to the manufacturer’s instructions.

Nrf2-ARE [5] = system: Nrf2-ARE; parameters: method as in PMID 31838896; settings: cited from earlier work

| SMILES | Calcium Antagonism (% Inhibition at 10 μM) (calcium channel) [%] | Cytotoxicity: no toxicity until concentration (AREc32 cells) [µM] | IC50 [1] [µM] | IC50 [2] [µM] | ORAC [3] | times less active than melatonin (ORAC) [3] [times] | Induction of the Nrf2 transcriptional pathway (Nrf2-ARE [4]) | CD (concentration required to double the specific luciferase reporter activity) (Nrf2-ARE [4]) | fold less active than Donepezil (hAChE) [1] [fold] | fold less active than TBHQ (CD) (Nrf2-ARE [4]) [fold] | times more active than melatonin (CD) (Nrf2-ARE [4]) [times] | CD (concentration required to double the specific luciferase reporter activity) (Nrf2-ARE [4]; listed as 5d) [µM] | CD (Nrf2-ARE [5]) [µM] |
| --- | --- | --- | --- | --- | --- | --- | --- | --- | --- | --- | --- | --- | --- |
| COCCOC(=O)C1=C(C)NC(C)=C(C(=O)OC(C)C)C1c1cccc([N+](=O)[O-])c1 (stereo not shown) [Nimodipine, reference compound] | 50± 10 |  |  |  |  |  |  |  |  |  |  |  |  |
| C#CCCOc1ccc(C2NC(=O)N(CCC3CCN(Cc4ccccc4)CC3)C(C)=C2C(=O)OCC)cc1 (stereo not shown) [BIGI 4d, Ethyl 1-(2-(1-benzylpiperidin-4-yl)ethyl)-4-(4-(but-3-yn-1-yloxy)phenyl)-6-methyl-2-oxo-1,2,3,4-tetrahydropyrimidine-5-carboxylate] | 50 ± 13 | 50 | 0.462 ± 0.04 | 6.63 ± 0.71 | 1.85 TE and 1.85 ± 0.16 TE | ~1.4 | able to successfully induce the Nrf2 transcriptional pathway | 7.7 µM and 7.7 ± 2.9 µM |  |  |  |  |  |
| C#CCOc1ccc(C2NC(=O)N(CCC3CCN(Cc4ccccc4)CC3)C(C)=C2C(=O)OCC)cc1 (stereo not shown) [BIGI 4b, Ethyl 1-(2-(1-benzylpiperidin-4-yl)ethyl)-6-methyl-2-oxo-4-(4-(prop-2-yn-1-yloxy)phenyl)-1,2,3,4-tetrahydropyrimidine-5-carboxylate] | 67 ± 10 | 50 | 0.342 ± 0.064 | 4.78 ± 0.58 | 1.60 TE and 1.60 ± 0.15 TE | ~1.4 | able to successfully induce the Nrf2 transcriptional pathway | 7.1 µM and 7.1 ± 0.8 µM | 27 |  |  |  |  |
| C#CCCOc1ccc(C2NC(=S)N(CCC3CCN(Cc4ccccc4)CC3)C(C)=C2C(=O)OCC)cc1 (stereo not shown) [BIGI 5d, Ethyl 1-(2-(1-benzylpiperidin-4-yl)ethyl)-4-(4-(but-3-yn-1-yloxy)phenyl)-6-methyl-2-thioxo-1,2,3,4-tetrahydropyrimidine-5-carboxylate] | 68 ± 12 | 100 | 1.271 ± 0.005 | 8.54 ± 0.71 | 1.57 ± 0.13 TE |  | able to successfully induce the Nrf2 transcriptional pathway | 33.4 ± 4.8 µM |  | 42 | 2 | 33.4 |  |
| C#CCCOc1ccc(C2NC(=O)N(CC3CCN(Cc4ccccc4)CC3)C(C)=C2C(=O)OCC)cc1 (stereo not shown) [BIGI 4c, Ethyl 1-((1-benzylpiperidin-4-yl)methyl)-4-(4-(but-3-yn-1-yloxy)phenyl)-6-methyl-2-oxo-1,2,3,4-tetrahydropyrimidine-5-carboxylate] | 40± 13 |  | > 1 | > 10 | 0.98 ± 0.03 TE |  |  |  |  |  |  |  |  |
| C#CCOc1ccc(C2NC(=O)N(CC3CCN(Cc4ccccc4)CC3)C(C)=C2C(=O)OCC)cc1 (stereo not shown) [BIGI 4a, Ethyl 1-((1-benzylpiperidin-4-yl)methyl)-6-methyl-2-oxo-4-(4-(prop-2-yn-1-yloxy)phenyl)-1,2,3,4-tetrahydropyrimidine-5-carboxylate] | 45 ± 11 |  | > 1 | 31.2 ± 1.7 | 1.44 ± 0.06 TE |  |  |  |  |  |  |  |  |
| C#CCOc1ccc(C2NC(=S)N(CCC3CCN(Cc4ccccc4)CC3)C(C)=C2C(=O)OCC)cc1 (stereo not shown) [BIGI 5b, Ethyl 1-(2-(1-benzylpiperidin-4-yl)ethyl)-6-methyl-4-(4-(prop-2-yn-1-yloxy)phenyl)-2-thioxo-1,2,3,4-tetrahydropyrimidine-5-carboxylate] | 74 ± 16 | 50 | 0.352 ± 0.015 | 5.43 ± 0.24 | 1.41 ± 0.06 TE |  | able to successfully induce the Nrf2 transcriptional pathway | 13.5 µM and 13.5 ± 9.1 µM | 27 |  |  |  |  |
| COc1ccc2[nH]cc(CCNC(C)=O)c2c1 [Melatonin] |  |  |  |  |  |  |  |  |  |  |  |  | 60 |
| C#CCOc1ccc(C2NC(=S)N(CC3CCN(Cc4ccccc4)CC3)C(C)=C2C(=O)OCC)cc1 (stereo not shown) [BIGI 5a, Ethyl 1-((1-benzylpiperidin-4-yl)methyl)-6-methyl-4-(4-(prop-2-yn-1-yloxy)phenyl)-2-thioxo-1,2,3,4-tetrahydropyrimidine-5-carboxylate] | 46 ± 18 |  | > 1 | 7.64 ± 0.79 | 1.35 ± 0.04 TE |  |  |  |  |  |  |  |  |
| C#CCCOc1ccc(C2NC(=S)N(CC3CCN(Cc4ccccc4)CC3)C(C)=C2C(=O)OCC)cc1 (stereo not shown) [BIGI 5c, Ethyl 1-((1-benzylpiperidin-4-yl)methyl)-4-(4-(but-3-yn-1-yloxy)phenyl)-6-methyl-2-thioxo-1,2,3,4-tetrahydropyrimidine-5-carboxylate] | 63 ± 18 |  | > 1 | 33.8 ± 7.89 | 1.75 TE and 1.75 ± 0.06 TE | ~1.4 |  |  |  |  |  |  |  |
| CC(C)(C)c1cc(O)ccc1O [TBHQ, reference compound] |  |  |  |  |  |  |  | 0.8 µM and 0.8 ± 0.2 µM |  |  |  |  |  |
